Measurements published in patent US20250145594A1, “MODULATORS OF THE INTEGRATED STRESS PATHWAY” (Calico Life Sciences LLC, priority 2020, published 2025).

System: ATF4 luciferase reporter in HEK293T cells
Test: ATF4-Luc assay (in vitro model of VWMD)
Format: cell-based, human
Conditions: Homo sapiens, HEK-293T, 7 h, HEK293T cells carrying the ATF4 luciferase reporter, 1 μg/mL tunicamycin, One Glo luminescence
Experimental: In order to test exemplary compounds of the invention in a cellular context, a stable VWMD cell line was first constructed. The ATF4 reporter was prepared by fusing the human full-length ATF4 5′-UTR (NCBI Accession No. BC022088.2) in front of the firefly luciferase (FLuc) coding sequence lacking the initiator methionine as described in Sidrauski et al (eLife 2013). The construct was used to produce recombinant retroviruses using standard methods and the resulting viral supernatant was used to transduce HEK293T cells, which were then subsequently selected with puromycin to generate a stable cell line.
HEK293T cells carrying the ATF4 luciferase reporter were plated on polylysine coated 384-well plates (Greiner Bio-one) at 30,000 cells per well. Cells were treated the next day with 1 μg/mL tunicamycin and 200 nM of a compound of Formula (I) for 7 hours. Luminescence was measured using One Glo (Promega) as specified by the manufacturer. Cells were maintained in DMEM with L-glutamine supplemented with 10% heat-inactivated FBS (Gibco) and Antibiotic-Antimycotic solution (Gibco).
Table 4 below summarizes the EC50 data obtained using the ATF4-Luc assay for exemplary compounds of the invention.

| Structure (SMILES) | EC50 [nM] |
| --- | --- |
| O=C(NC12CC(n3cc(OCCOC(F)(F)F)cn3)(C1)C2)[C@H]1CNc2cc(Cl)ccc2O1 [Compound 518, (2R)-6-chloro-N-(3-{4-[2-(trifluoromethoxy)ethoxy]-1H-pyrazol-1-yl}bicyclo[1.1.1]pentan-1-yl)-3,4-dihydro-2H-1,4-benzoxazine-2-carboxamide] | 10 to 50 |
| O=C(COc1ccc(Cl)c(F)c1)NC12CC(n3cc(OCCOC(F)(F)F)cn3)(C1)C2 [Compound 451, 2-(4-chloro-3-fluorophenoxy)-N-(3-{4-[2-(trifluoromethoxy)ethoxy]-1H-pyrazol-1-yl}bicyclo[1.1.1]pentan-1-yl)acetamide] | < 10 |
| O=C(NC12CC(OCC(=O)N3CC(COC(F)(F)F)C3)(C1)C2)[C@H]1C[C@@H](O)c2cc(Cl)ccc2O1 [Compound 335, (2R,4R)-6-chloro-4-hydroxy-N-[3-(2-oxo-2-{3-[(trifluoromethoxy)methyl]azetidin-1-yl}ethoxy)bicyclo[1.1.1]pentan-1-yl]-3,4-dihydro-2H-1-benzopyran-2-carboxamide] | 50 to 250 |
| O=C(NC12CC(n3cnc(C(=O)N4CC(OC(F)(F)F)C4)c3)(C1)C2)[C@H]1C[C@@H](O)c2cc(Cl)ccc2O1 [Compound 395, (2R,4R)-6-chloro-4-hydroxy-N-(3-{4-[3-(trifluoromethoxy)azetidine-1-carbonyl]-1H-imidazol-1-yl}bicyclo[1.1.1]pentan-1-yl)-3,4-dihydro-2H-1-benzopyran-2-carboxamide] | 10 to 50 |
| C[C@@H](COC(F)(F)F)Oc1cnn(C23CC(NC(=O)[C@H]4C[C@@H](O)c5cc(Cl)ccc5O4)(C2)C3)c1 [Compound 439, (2R,4R)-6-chloro-4-hydroxy-N-[3-(4-{[(2S)-1-(trifluoromethoxy)propan-2-yl]oxy}-1H-pyrazol-1-yl)bicyclo[1.1.1]pentan-1-yl]-3,4-dihydro-2H-1-benzopyran-2-carboxamide] | < 10 |
| O=C(NC12CC(n3cc(OCCOC(F)(F)F)cn3)(C1)C2)[C@@H]1C[C@@H](O)c2cc(Cl)ccc2O1 [Compound 631, (2S,4R)-6-chloro-4-hydroxy-N-(3-{4-[2-(trifluoromethoxy)ethoxy]-1H-pyrazol-1-yl}bicyclo[1.1.1]pentan-1-yl)-3,4-dihydro-2H-1-benzopyran-2-carboxamide] | 10 to 50 |
| O=C(NC12CC(c3ccnc(OCCCOC(F)(F)F)c3)(C1)C2)[C@H]1C[C@@H](O)c2cc(Cl)ccc2O1 [Compound 428, (2R,4R)-6-chloro-4-hydroxy-N-(3-{2-[3-(trifluoromethoxy)propoxy]pyridin-4-yl}bicyclo[1.1.1]pentan-1-yl)-3,4-dihydro-2H-1-benzopyran-2-carboxamide] | < 10 |
| O=C(NC12CC(n3cc(-c4ccc(C5CC5)cn4)cn3)(C1)C2)[C@H]1C[C@@H](O)c2cc(Cl)c(F)cc2O1 [Compound 571, (2R,4R)-6-chloro-N-{3-[4-(5-cyclopropylpyridin-2-yl)-1H-pyrazol-1-yl]bicyclo[1.1.1]pentan-1-yl}-7-fluoro-4-hydroxy-3,4-dihydro-2H-1-benzopyran-2-carboxamide] | < 10 |
| CCO[C@H]1CCN(C(=O)c2cnn(C34CC(NC(=O)[C@H]5C[C@@H](O)c6cc(Cl)ccc6O5)(C3)C4)c2)C1 [Compound 359, (2R,4R)-6-chloro-N-(3-{4-[(3S)-3-ethoxypyrrolidine-1-carbonyl]-1H-pyrazol-1-yl}bicyclo[1.1.1]pentan-1-yl)-4-hydroxy-3,4-dihydro-2H-1-benzopyran-2-carboxamide] | 10 to 50 |
| O=C(COc1ccc(Cl)c(F)c1)NC12CCC(n3cc(OCCCOC(F)(F)F)cn3)(C1)C2 [Compound 630, 2-(4-chloro-3-fluorophenoxy)-N-(4-{4-[3-(trifluoromethoxy)propoxy]-1H-pyrazol-1-yl}bicyclo[2.1.1]hexan-1-yl)acetamide] | 50 to 250 |
| O=C(NC12CC(n3cc(-c4ccc(OC(F)F)cn4)cn3)(C1)C2)[C@H]1C[C@@H](O)c2cc(Cl)ccc2O1 [Compound 575, (2R,4R)-6-chloro-N-(3-{4-[5-(difluoromethoxy)pyridin-2-yl]-1H-pyrazol-1-yl}bicyclo[1.1.1]pentan-1-yl)-4-hydroxy-3,4-dihydro-2H-1-benzopyran-2-carboxamide] | < 10 |
| O=C(NC12CC(n3cc(COCCOC(F)(F)F)nn3)(C1)C2)[C@H]1C[C@@H](O)c2cc(Cl)ccc2O1 [Compound 522, (2R,4R)-6-chloro-4-hydroxy-N-[3-(4-{[2-(trifluoromethoxy)ethoxy]methyl}-1H-1,2,3-triazol-1-yl)bicyclo[1.1.1]pentan-1-yl]-3,4-dihydro-2H-1-benzopyran-2-carboxamide] | < 10 |
| O=C(N[C@H]1C[C@H]2CC[C@@H](C1)N2CCCOc1ccc(Cl)cc1)C1C[C@@H](O)c2cc(Cl)ccc2O1 (stereo partly drawn) [Compound 125, (2R,4R)-6-chloro-N-{(1R,3r,5S)-8-[3-(4-chlorophenoxy)propyl]-8-azabicyclo[3.2.1]octan-3-yl}-4-hydroxy-3,4-dihydro-2H-1-benzopyran-2-carboxamide] | 50 to 250 |
| O=C(NC12CC(n3cc(-c4ccc(OC(F)(F)F)cn4)cn3)(C1)C2)[C@H]1C[C@@H](O)c2cc(F)ccc2O1 (racemic) [Compound 552, rac-(2R,4R)-6-fluoro-4-hydroxy-N-(3-{4-[5-(trifluoromethoxy)pyridin-2-yl]-1H-pyrazol-1-yl}bicyclo[1.1.1]pentan-1-yl)-3,4-dihydro-2H-1-benzopyran-2-carboxamide] | < 10 |
| O=C(NC12CC(n3cc([C@H]4C[C@@H](OC(F)(F)F)C4)cn3)(C1)C2)[C@H]1C[C@@H](O)c2cc(Cl)ccc2O1 [Compound 330, (2R,4R)-6-chloro-4-hydroxy-N-(3-{4-[cis-3-(trifluoromethoxy)cyclobutyl]-1H-pyrazol-1-yl}bicyclo[1.1.1]pentan-1-yl)-3,4-dihydro-2H-1-benzopyran-2-carboxamide] | < 10 |
| O=C(NC12CC(n3cc(OCCCOC(F)(F)F)cn3)(C1)C2)[C@H]1C[C@@H](O)c2cc(Cl)ccc2O1 [Compound 431, (2R,4R)-6-chloro-4-hydroxy-N-(3-{4-[3-(trifluoromethoxy)propoxy]-1H-pyrazol-1-yl)bicyclo[1.1.1]pentan-1-yl)-3,4-dihydro-2H-1-benzopyran-2-carboxamide] | < 10 |
| Cn1nc(C23CC(NC(=O)COc4ccc(Cl)c(F)c4)(C2)C3)cc1O[C@H]1C[C@@H](OC(F)(F)F)C1 [Compound 345, 2-(4-chloro-3-fluorophenoxy)-N-[3-(1-methyl-5-{[cis-3-(trifluoromethoxy)cyclobutyl]oxy}-1H-pyrazol-3-yl)bicyclo[1.1.1]pentan-1-yl]acetamide] | 50 to 250 |
| O=C(N[C@H]1C[C@H]2O[C@@H]1C[C@@H]2c1nnc([C@H]2C[C@@H](OC(F)(F)F)C2)o1)[C@@H]1C[C@H](O)c2cc(Cl)ccc2O1 (mixture of isomers) [Compound 186, (2S,4S)-6-chloro-4-hydroxy-N-[(1RS,2SR,4RS,5SR)-5-{5-[cis-3-(trifluoromethoxy)cyclobutyl]-1,3,4-oxadiazol-2-yl}-7-oxabicyclo[2.2.1]heptan-2-yl]-3,4-dihydro-2H-1-benzopyran-2-carboxamide] | 10 to 50 |
| O=C(NC12CC(n3cc(C[C@H]4C[C@H](OC(F)(F)F)C4)cn3)(C1)C2)[C@H]1C[C@@H](O)c2cc(Cl)ccc2O1 [Compound 529, (2R,4R)-6-chloro-4-hydroxy-N-[3-(4-{[(1r,3S)-3-(trifluoromethoxy)cyclobutyl]methyl}-1H-pyrazol-1-yl)bicyclo[1.1.1]pentan-1-yl]-3,4-dihydro-2H-1-benzopyran-2-carboxamide] | 10 to 50 |
| O=C(NC12CC(n3cc(CCCOC(F)(F)F)cn3)(C1)C2)[C@H]1C[C@@H](O)c2cc(C(F)(F)F)ccc2O1 [Compound 513, (2R,4R)-4-hydroxy-N-(3-{4-[3-(trifluoromethoxy)propyl]-1H-pyrazol-1-yl}bicyclo[1.1.1]pentan-1-yl)-6-(trifluoromethyl)-3,4-dihydro-2H-1-benzopyran-2-carboxamide] | < 10 |
| O=C(NC12CC(n3cc(N4CC[C@@H](OC(F)(F)F)C4)cn3)(C1)C2)[C@H]1C[C@@H](O)c2cc(C(F)(F)F)ccc2O1 [Compound 579, (2R,4R)-4-hydroxy-N-(3-{4-[(3R)-3-(trifluoromethoxy)pyrrolidin-1-yl]-1H-pyrazol-1-yl}bicyclo[1.1.1]pentan-1-yl)-6-(trifluoromethyl)-3,4-dihydro-2H-1-benzopyran-2-carboxamide] | < 10 |
| O=C(NC12CC(n3cc(-c4ccc(OC(F)(F)F)cn4)cn3)(C1)C2)[C@H]1C[C@@H](O)c2cc(Cl)c(F)cc2O1 [Compound 361, (2R,4R)-6-chloro-7-fluoro-4-hydroxy-N-(3-{4-[5-(trifluoromethoxy)pyridin-2-yl]-1H-pyrazol-1-yl}bicyclo[1.1.1]pentan-1-yl)-3,4-dihydro-2H-1-benzopyran-2-carboxamide] | < 10 |
| O=C(N[C@H]1CC[C@H](n2cc(N3CC[C@@H](OC(F)(F)F)C3)cn2)CC1)[C@H]1C[C@@H](O)c2cc(Cl)ccc2O1 [Compound 581, (2R,4R)-6-chloro-4-hydroxy-N-[(1R,4R)-4-{4-[(3R)-3-(trifluoromethoxy)pyrrolidin-1-yl]-1H-pyrazol-1-yl}cyclohexyl]-3,4-dihydro-2H-1-benzopyran-2-carboxamide] | 10 to 50 |
